Measurements as given in US20190008819A1, “Methods and Compositions Using Cetyl Myristoleate (CMO) In Medical Treatments” (priority 2017, published 2019).

Key:
Format in all cases: in vivo, human
[1] = test system: middle age person with knee pain; assay: Case report: knee pain, CMO with gabapentin; settings: 0.1 milligrams to 10 grams cetyl myristoleate once to four times per day with appropriate dosage gabapentin; one patient
Description: A middle age person was taking a brief CMO regime for knee pain.

[2] = test system: middle age person with shoulder pain; assay: Case report: shoulder pain, CMO with gabapentin; settings: 0.1 milligrams to 10 grams cetyl myristoleate once to four times per day with an effective dosage gabapentin; one patient
Description: A middle age person was taking a brief CMO regime for shoulder pain.

[3] = test system: middle age person with cervical post-surgery syndrome; assay: Case report: cervical post-surgery syndrome; settings: 0.1 milligrams to 10 grams cetyl myristoleate once to four times per day; one patient
Description: A middle age person experienced cervical post-surgery syndrome.

[4] = test system: middle age person with complex regional pain syndrome; assay: Case report: complex regional pain syndrome with post-surgery pain
Method: A middle age person with complex regional pain syndrome had post-surgery pain. It was so severe that the person was to have foot amputation for the pain. A dosage of 0.1 milligrams to 10 grams of cetyl myristoleate once to four times per day was administered to the person. Shortly, the person described the pain decreased by 20-30 percent.

## CCCC/C=C\CCCCCCCC(=O)OCCCCCCCCCCCCCCCC [cetyl myristoleate, cis-9-Cetyl myristoleate]
[1]
  knee pain: decreased dramatically
[2]
  shoulder pain: decreased dramatically
[3]
  post-laminectomy syndrome (PLS): improved significantly
[4]; 0.1 milligrams to 10 grams cetyl myristoleate once to four times per day, one patient, post-surgery pain
  pain decreased (patient described): 20-30%
[4]; patient was to have foot amputation for the pain, 0.1 milligrams to 10 grams once to four times per day
  amputation outcome: has not undergone amputation
